Target: T1, recombinant human sGC (rhsGCα1/rhsGCβ1) in intact Sf9 cells (Homo sapiens, UniProt Q02108+Q02153)
T1 construct: Thus, the complete hsGCα1 cDNA is under the control of the polyhedrin promotor (PHP); Thus, the complete hsGCβ1 cDNA is under the control of the polyhedrin promotor (PHP); expressed in transfected cells; host or cells: Sf9 insect cells coinfected with recombinant baculoviruses (pVL1393-derived)
T1 sequence (Q02108 1-690): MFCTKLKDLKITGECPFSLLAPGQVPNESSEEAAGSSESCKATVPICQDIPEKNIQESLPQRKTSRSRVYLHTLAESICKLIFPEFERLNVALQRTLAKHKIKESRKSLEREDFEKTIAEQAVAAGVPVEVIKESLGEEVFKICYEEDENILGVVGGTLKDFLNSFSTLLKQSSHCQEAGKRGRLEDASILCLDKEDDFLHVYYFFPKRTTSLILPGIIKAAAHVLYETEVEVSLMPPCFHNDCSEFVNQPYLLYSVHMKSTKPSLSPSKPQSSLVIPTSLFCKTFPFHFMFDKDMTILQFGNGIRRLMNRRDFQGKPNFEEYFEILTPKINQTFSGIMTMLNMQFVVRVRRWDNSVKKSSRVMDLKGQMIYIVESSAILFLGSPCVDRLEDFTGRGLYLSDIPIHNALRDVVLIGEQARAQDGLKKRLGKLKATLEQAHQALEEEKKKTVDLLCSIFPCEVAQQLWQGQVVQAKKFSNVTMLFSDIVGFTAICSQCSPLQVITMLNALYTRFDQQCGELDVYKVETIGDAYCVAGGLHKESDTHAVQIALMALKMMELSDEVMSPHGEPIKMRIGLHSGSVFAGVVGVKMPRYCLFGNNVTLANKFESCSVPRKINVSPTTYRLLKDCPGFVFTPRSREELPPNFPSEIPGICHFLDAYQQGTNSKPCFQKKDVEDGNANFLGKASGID
T1 sequence (Q02153 1-619): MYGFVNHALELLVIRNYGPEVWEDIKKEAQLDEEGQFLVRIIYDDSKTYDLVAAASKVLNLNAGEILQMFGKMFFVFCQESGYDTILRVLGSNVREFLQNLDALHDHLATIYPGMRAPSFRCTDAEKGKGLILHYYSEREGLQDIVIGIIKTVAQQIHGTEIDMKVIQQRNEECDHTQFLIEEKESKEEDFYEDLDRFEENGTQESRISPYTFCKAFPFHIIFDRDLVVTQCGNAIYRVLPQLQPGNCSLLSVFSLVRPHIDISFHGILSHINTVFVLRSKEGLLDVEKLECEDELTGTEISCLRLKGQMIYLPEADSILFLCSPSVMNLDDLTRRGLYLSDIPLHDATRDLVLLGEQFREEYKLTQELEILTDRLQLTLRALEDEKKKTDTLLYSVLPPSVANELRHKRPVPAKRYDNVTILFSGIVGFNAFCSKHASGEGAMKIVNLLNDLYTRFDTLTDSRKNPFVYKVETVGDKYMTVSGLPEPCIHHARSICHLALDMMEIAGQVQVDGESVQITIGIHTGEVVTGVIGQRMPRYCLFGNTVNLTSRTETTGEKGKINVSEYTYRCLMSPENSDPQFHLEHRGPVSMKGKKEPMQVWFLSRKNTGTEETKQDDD
Test: cGMP content (RIA) in intact Sf9 cells coexpressing rhsGCα1 and rhsGCβ1
Type: cell-based
Procedure: For the production of functional heterodimeric human sGC, rhsGCα1 and rhsGCβ1 were coexpressed in Sf9 cells with recombinant baculoviruses. For this, Sf9 monolayer cultures [2.5×10^6 cells/dish, Ø 90 mm; supplements see example 2] were coinfected with a M.O.I. (multiplicity of infection) of 2 pfu/cell of each recombinant baculovirus (hsGCα1 and hsGCβ1; both without GST-tag) and cultivated for 48 hours at 27° C. The basal as well as the NO-stimulated activity of the sGC in the cells was determined by measurement of the cGMP content in the cells in the presence of the phosphodiesterase inhibitor IBMX (3-isobutyl-1-methylxanthine).
For the determination of the cGMP content, the culture media was replaced by Krebs-Ringer-buffer (KRB; […]; 4.74 mM KCI; 2.54 mM CaCl2; 1.19 mM MgSO4; 1.19 mM KH2PO4; 25 mM NaHCO3; 10 mM HEPES; pH 7.4; 0.1% BSA) which, in addition, contained 1 mM IBMX. The cells were incubated for one hour at 27° C. Then the cells were washed with ice-cold KRP and harvested in 1 ml ice-cold ethanol (80%) with a cell scraper. The cells were homogenized by sonication [see Example 3] and centrifuged at 20,000×g for 20 minutes. The supernatant was dried in a speed-vac and the residue resuspended in 25 mM TEA, pH 7.8. The cGMP content was determined by means of RIA (Biotrend).

Structure (SMILES)	increase of cGMP content (10 μM YC-1 for 2 minutes) [fold]	increase of cGMP content (100 μM YC-1, compared with 10 μM YC-1)	cGMP levels compared to stimulation with SNP alone (YC-1 simultaneously with 100 μM SNP)	influence on basal cGMP levels (basal, without SNP)	effect on stimulation of rhsGC with SNP (simultaneous incubation with ODQ and SNP)
OCc1ccc(-c2nn(Cc3ccccc3)c3ccccc23)o1 [YC-1, 3-(5′-hydroxymethyl-2′-furyl)-1-benzylindazol]	3.4	the same effect	doubled		
O=c1onc2cnc3ccccc3n12 [ODQ, 1H-[1,2,4]oxadiazolo[4,3,-a]chinoxalin-1-on]				did not have an influence	inhibited
